Data from publication PMC6422423, “Constitutively active BRS3 is a genuinely orphan GPCR in placental mammals” (PLoS Biology, 2019).

How the values were obtained:
NMBR = molecular target: T1, NMBR (Homo sapiens, UniProt P28336); assay: Radioligand binding (competition); conditions: [125I]-Tyr-NMB
T1 construct: HA; expressed in transfected cells; host or cells: HEK293
Experimental: HEK293 cells were seeded in a 10-cm tissue culture dish at a density of 10^6 cells per dish and grown overnight at 37°C in growth medium. The following morning, 5 μg of different species’ BRS3 plasmids were transfected. After 6 h, the medium was replaced with growth medium. Cells were maintained at 37°C in a 5% CO2 atmosphere and used 48 h later for binding assays. The positive control group included transfected GRPR and NMBR; the test group consisted of transfected BRS3 from different species. […] The cell concentration was adjusted to between 0.05 and 4 × 10^6 cells/ml for each receptor such that less than 20% of the total added radioactive ligand was bound during the incubation, and the results were compared to cells transfected with GRPR or NMBR adjusted in concentration to bind a similar amount of ligand. After the incubation, 100 μl aliquots were added to 1.5-ml microfuge tubes, which contained 100 μl of binding buffer to determine the total radioactivity. […] The amount of radioactivity bound to the cells was measured in a Cobra II Gamma counter (Packard Instruments). Binding was expressed as the percentage of total radioactivity that was associated with the cell pellet. […] Each point was measured in duplicate, and each experiment was replicated at least four times. […] All the experiment data were calculated using 1 pM ligand-treated as 100% control.

GRPR = molecular target: T2, GRPR (Homo sapiens, UniProt P30550); assay: Intracellular calcium assay; assay type: cell-based; conditions: 10 nM peptide, HEK293, Fluo8, GRPR
T2 construct: HA; expressed in transfected cells; host or cells: HEK293
T2 sequence (P30550 whole entry, species assumed): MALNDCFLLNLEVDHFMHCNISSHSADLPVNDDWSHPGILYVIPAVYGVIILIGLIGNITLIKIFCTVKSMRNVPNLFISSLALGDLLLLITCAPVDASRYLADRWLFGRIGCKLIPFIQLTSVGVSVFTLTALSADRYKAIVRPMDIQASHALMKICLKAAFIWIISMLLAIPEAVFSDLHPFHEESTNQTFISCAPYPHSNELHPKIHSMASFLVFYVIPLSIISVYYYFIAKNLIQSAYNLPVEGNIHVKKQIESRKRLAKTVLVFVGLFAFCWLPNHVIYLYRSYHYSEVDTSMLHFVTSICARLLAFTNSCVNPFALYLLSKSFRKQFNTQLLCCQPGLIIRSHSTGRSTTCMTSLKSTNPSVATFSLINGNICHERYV
Experimental: Intracellular calcium was measured using the non-wash calcium assay Fluo8 kit (ab112129, Abcam) according to the manufacturer’s instructions. Briefly, HEK293 cells were seeded in 24-well plates and were transfected with GRPR, NMBR, BRS3, or the empty vector plasmid pcDNA3.1-V5-His (300 ng) and incubated overnight at 37°C with 5% CO2. The next day, the cells were replated into a 96-well assay plate (black plate and clear bottom). After 12 h, growth media were aspirated, and calcium dye was added. […] The basal fluorescence intensity was recorded 15 times at 1 Hz for […]. The results were normalized to the average basal fluorescence intensity in ratio, and the peak response was used for the result calculation. Calcium fold was calculated using no stimulation data as standard value.

T1 sequence (P28336 whole entry, species assumed): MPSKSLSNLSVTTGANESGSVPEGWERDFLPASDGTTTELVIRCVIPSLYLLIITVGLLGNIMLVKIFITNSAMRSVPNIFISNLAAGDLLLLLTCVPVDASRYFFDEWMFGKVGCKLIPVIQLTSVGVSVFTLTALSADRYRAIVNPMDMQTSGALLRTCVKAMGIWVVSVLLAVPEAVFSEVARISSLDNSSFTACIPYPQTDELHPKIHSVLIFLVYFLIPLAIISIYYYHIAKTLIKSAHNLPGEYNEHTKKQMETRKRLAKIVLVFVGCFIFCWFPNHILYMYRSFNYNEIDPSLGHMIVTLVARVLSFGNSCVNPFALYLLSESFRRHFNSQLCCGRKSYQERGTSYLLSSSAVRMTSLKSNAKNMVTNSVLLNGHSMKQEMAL

For “GSHWAVGHLM-NH2 [GRP, gastrin-releasing peptide]”, the “Inhibition of NMBR–NMB binding (in words)” value (NMBR) was “cannot inhibit”, the Calcium fold (GRPR; replicate 1) was 5.512 fold and the Calcium fold (GRPR; replicate 2) was 5.7711 fold. It also gave a Calcium fold (GRPR; replicate 3) of 5.9191 fold.
